PubChem BioAssay (NCI)
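A five-concentration, 48-hour dose response in 96-well plates underlies each endpoint, interpolated linearly between surrounding concentrations. Definition used: TGI = concentration required for complete inhibition of growth.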

Tests used:
Assay in all cases: NCI tumour cell line growth inhibition, 48 h
SK-MEL-5 melanoma = test system: SK-MEL-5 melanoma
UACC-62 melanoma = test system: UACC-62 melanoma
MOLT-4 leukemia = test system: MOLT-4 leukemia
OVCAR-8 ovarian = test system: OVCAR-8 ovarian
SF-268 CNS = test system: SF-268 CNS
M14 melanoma = test system: M14 melanoma
PC-3 prostate = test system: PC-3 prostate
HS 578T breast = test system: HS 578T breast
NCI-H460 lung = test system: NCI-H460 lung
DU-145 prostate = test system: DU-145 prostate
K-562 leukemia = test system: K-562 leukemia

SMILES | TGI (SK-MEL-5 melanoma) [µM] | TGI (UACC-62 melanoma) [µM] | TGI (MOLT-4 leukemia) [µM] | TGI (OVCAR-8 ovarian) [µM] | TGI (SF-268 CNS) [µM] | TGI (M14 melanoma) [µM] | TGI (PC-3 prostate) [µM] | TGI (HS 578T breast) [µM] | TGI (NCI-H460 lung) [µM] | TGI (DU-145 prostate) [µM] | TGI (K-562 leukemia) [µM]
COc1ccc2c[n+](C)c3c4cc(OC)c(OC)cc4ccc3c2c1 | 29.3 | 41.3 | 32.3 | 13.8 | 13.2 | 32.1 | 16.2 | 16.1 | 19.3 | 37.4 | 34.9
Cc1cc(C)nc(NS(=O)(=O)c2ccc(NNC(=O)c3cccc4c(NNc5ccc(S(=O)(=O)Nc6nc(C)cc(C)n6)cc5)c5ccccc5nc34)cc2)n1 | 33 | 58.7 | 66.8 | 43.4 | 61 | 32.6 | 51 | 71.9 | 51.1 | 36.8 | 52.4
c1ccc(/N=N\Nc2ccc(-c3nc4ccccc4o3)cc2)nc1 | 30.3 | > 100 | 61.1 | > 100 | > 100 | > 100 | > 100 | > 100 | > 100 | > 100 | > 100
c1ccc(SC(Sc2ccccc2)c2ccc3c(c2)OCO3)cc1 | > 100 | > 100 | > 100 | > 100 | > 100 | > 100 | > 100 | > 100 | > 100 | > 100 | > 100
COC1=CC(=O)c2c(O)ccc(O)c2C1=O | 2.65 | 4.21 | 44.3 | 55.5 | 17.9 | 1.89 | 41.4 | 19.5 | 12.9 | 3.18 | > 100
Cc1cc(N(CCC#N)CCC#N)ccc1/C(N=Nc1ccccc1)=N\NC(=O)c1ccccc1 | > 100 | 45.5 | 64.5 | 90.7 | > 100 | > 100 | > 100 | 75.8 | 91 | > 100 | 44.7
COc1cc(C=Nc2ccc(S(N)(=O)=O)cc2)cc(OC)c1 | > 50 | > 50 | > 50 | > 50 | > 50 | > 50 | > 50 | > 50 | > 50 | > 50 | > 50
CC1C2(C)OC(=N)C(C#N)(C(c3ccco3)O2)C1(C#N)C#N (configuration not stated) | 28.1 | 36.8 | > 100 | > 100 | > 100 | 35.9 | > 100 | 80.8 | 44.6 | > 100 | > 100
CCCN1CN(c2ccccc2)C2(CCN(CCCC(=O)c3ccc(F)cc3)CC2)C1=O | 4.84 | 31.3 | 15.5 | 32.6 | 23.8 | 25.1 | 27.6 | 34.1 | 26.9 | 11.1 | > 58.4
Cc1ccc(S(=O)C[C@@]2(C(F)F)NC(=O)NC2=O)cc1 (some centres not stated) | > 100 | > 100 | > 100 | > 100 | > 100 | > 100 | > 100 | > 100 | > 100 | > 100 | > 100
c1ccc2c(c1)CCN1CCc3c([nH]c4ccccc34)C21 (configuration not stated) | 29.7 | > 100 | 70.6 | > 100 | > 100 | 34 | 98.5 | > 100 | > 100 | > 100 | 43.3
CC(C)c1ccc2c(c1)C=C1OC(=O)[C@]3(C)CCC[C@@]2(C)C13 (some centres not stated) | > 100 | > 100 | > 100 | > 100 | > 100 | > 100 | > 100 | > 100 | > 100 | > 100 | > 100
NC(N)=NS(=O)(=O)c1ccc(Nc2c3ccccc3nc3c(C(=O)NC(CO)(CO)CO)cccc23)cc1 | 57.5 | 94.6 | > 100 | > 100 | > 100 | 68.3 | > 100 | 41.2 | 16.6 | > 100 | > 100
CC(=O)N1C(C(=O)NNc2ccccc2)CSC1c1ccccc1 (configuration not stated) | > 100 | 61.8 | > 100 | > 100 | > 100 | > 100 | > 100 | > 100 | > 100 | > 100 | > 100
O=c1c2ccccc2c2c1c1c3ccccc3c(=O)c1c1c3ccccc3c(=O)c21 | > 100 | > 100 | > 100 | > 100 | > 100 | > 100 | > 100 | > 100 | > 100 | > 100 | > 100
O=C(N/N=C/C=C/c1ccc([N+](=O)[O-])o1)c1ccc(Br)s1 | 46.1 | 49.5 | > 100 | 46.7 | 98.4 | 42.1 | 49.7 | 31.7 | > 100 | > 100 | > 100
CC(=O)Nc1ccc(S(=O)(=O)[N-]C2C(=O)c3ccccc3C(=O)C2[n+]2ccccc2)cc1 (configuration not stated) | 15.3 | 28.9 | 47.2 | 38.3 | 35.5 | 27.4 | 46.1 | 62.4 | 86.3 | > 100 | > 100
O=C1OC2c3ccccc3C(=O)C2(c2ccccc2)N1c1ccccc1 (configuration not stated) | > 200 | > 200 | > 200 | > 200 | > 200 | > 200 | > 200 | > 200 | > 200 | > 200 | > 200
O=C(O)CSc1nnc(CCCCCCCCc2nnc(SCC(=O)O)o2)o1 | > 100 | > 100 | > 100 | > 100 | > 100 | > 100 | > 100 | > 100 | > 100 | > 100 | > 100
OCCCCn1cc(Cn2ncc3c(SCc4ccccc4)ncnc32)nn1 | 54.5 | > 100 | 77.3 | > 100 | > 100 | > 100 | > 100 | > 100 | > 100 | > 100 | > 100
COc1cc(-c2c3c([nH]c(=O)c2C#N)-c2cc([N+](=O)[O-])ccc2CCC3)cc(OC)c1OC | 26.7 | 32.1 | > 100 | > 100 | > 100 | > 100 | > 100 | 73.3 | 67 | > 100 | > 100
CC(C)CCNC(=O)c1ccc(CNC(=O)/C=C/c2csc(-c3ccccc3)n2)cc1 | > 100 | > 100 | > 100 | 79.2 | > 100 | > 100 | > 100 | > 100 | > 100 | > 100 | > 100
